# Results from article PMC3940203, “Elements in nucleotide sensing and hydrolysis of the AAA+ disaggregation machine ClpB: a structure-based mechanistic dissection of a molecular motor” (Acta Crystallographica Section D: Biological Crystallography, 2014).
# Key:
# ClpB NBD2 [1] = target: T1, ClpB NBD2 (Thermus thermophilus, UniProt Q9RA63, N709A); test: stopped-flow FRET, displacement and competition with MANT-dADP, global fit; Kd = koff/kon; format: binding; conditions: 50 mM Tris-HCl pH 7.5, 200 mM KCl, 5 mM MgCl2, 2 mM EDTA, 25 °C
# Source text: (§1) stopped-flow FRET, displacement and competition with MANT-dADP, global fit; Kd = koff/kon on ClpB NBD2
# ClpB NBD2 [2] = target: T2, ClpB NBD2 (Thermus thermophilus, UniProt Q9RA63, R806A); test: as above; conditions: 50 mM Tris-HCl pH 7.5, 200 mM KCl, 5 mM MgCl2, 2 mM EDTA, 25 °C; read-out: Nucleotide binding / K d
# Source text: as §1
# ClpB NBD2 [3] = target: T3, ClpB NBD2 (Thermus thermophilus, UniProt Q9RA63, R621Q); test: as above; conditions: 50 mM Tris-HCl pH 7.5, 200 mM KCl, 5 mM MgCl2, 2 mM EDTA, 25 °C; read-out: Nucleotide binding / K d
# Source text: as §1
# ClpB NBD2 [4] = target: T4, ClpB NBD2 (Thermus thermophilus, UniProt Q9RA63); test: X-ray crystal structure, […] Å; format: binding; conditions: co-crystal with 2 mM ADP, pH 7.0; nucleotide site of NBD2, no Mg2+ bound
# T4 sequence (Q9RA63 520-854): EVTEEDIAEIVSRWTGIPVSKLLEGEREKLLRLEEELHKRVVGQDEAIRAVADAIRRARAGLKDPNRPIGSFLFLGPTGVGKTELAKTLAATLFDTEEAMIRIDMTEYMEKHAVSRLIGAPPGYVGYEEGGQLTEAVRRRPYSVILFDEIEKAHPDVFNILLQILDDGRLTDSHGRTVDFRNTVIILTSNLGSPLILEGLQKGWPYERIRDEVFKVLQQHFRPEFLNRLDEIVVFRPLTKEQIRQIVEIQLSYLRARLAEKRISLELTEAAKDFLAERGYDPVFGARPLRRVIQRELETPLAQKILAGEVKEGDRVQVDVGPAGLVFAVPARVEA
# ClpB NBD2 [5] = target: T2, ClpB NBD2; test: stopped-flow FRET, direct mixing and displacement, global fit; Kd = koff/kon; format: binding; conditions: 50 mM Tris-HCl pH 7.5, 200 mM KCl, 5 mM MgCl2, 2 mM EDTA, 25 °C; labelled compound
# Source text: (§2) stopped-flow FRET, direct mixing and displacement, global fit; Kd = koff/kon on ClpB NBD2
# ClpB NBD2 [6] = target: T4, ClpB NBD2; test: X-ray crystal structure, […] Å; format: binding; conditions: co-crystal with 2 mM AMPPCP, pH 7.0; nucleotide site of NBD2, no Mg2+ bound
# ClpB NBD2 [7] = target: T1, ClpB NBD2; test: stopped-flow FRET, competition and displacement with MANT-dADP, global fit; Kd = koff/kon; conditions: 50 mM Tris-HCl pH 7.5, 200 mM KCl, 5 mM MgCl2, 2 mM EDTA, 25 °C; ATP-regenerating system (pyruvate kinase, phosphoenolpyruvate); read-out: Nucleotide binding / K d
# Source text: (§3) stopped-flow FRET, competition and displacement with MANT-dADP, global fit; Kd = koff/kon on ClpB NBD2
# ClpB NBD2 [8] = target: T2, ClpB NBD2; test: as above; conditions: 50 mM Tris-HCl pH 7.5, 200 mM KCl, 5 mM MgCl2, 2 mM EDTA, 25 °C; ATP-regenerating system (pyruvate kinase, phosphoenolpyruvate); read-out: Nucleotide binding / K d
# Source text: as §3
# ClpB NBD2 [9] = target: T3, ClpB NBD2; test: as above; conditions: 50 mM Tris-HCl pH 7.5, 200 mM KCl, 5 mM MgCl2, 2 mM EDTA, 25 °C; ATP-regenerating system (pyruvate kinase, phosphoenolpyruvate); read-out: Nucleotide binding / K d
# Source text: as §3
# ClpB NBD2 [10] = target: T1, ClpB NBD2; test: stopped-flow FRET, direct mixing and displacement, global fit; Kd = koff/kon; format: binding; conditions: 50 mM Tris-HCl pH 7.5, 200 mM KCl, 5 mM MgCl2, 2 mM EDTA, 25 °C; labelled compound
# Source text: as §2
# ClpB NBD2 [11] = target: T3, ClpB NBD2; test: as above; format: binding; conditions: 50 mM Tris-HCl pH 7.5, 200 mM KCl, 5 mM MgCl2, 2 mM EDTA, 25 °C; labelled compound
# Source text: as §2
# T3 sequence (Q9RA63 520-854 R621Q): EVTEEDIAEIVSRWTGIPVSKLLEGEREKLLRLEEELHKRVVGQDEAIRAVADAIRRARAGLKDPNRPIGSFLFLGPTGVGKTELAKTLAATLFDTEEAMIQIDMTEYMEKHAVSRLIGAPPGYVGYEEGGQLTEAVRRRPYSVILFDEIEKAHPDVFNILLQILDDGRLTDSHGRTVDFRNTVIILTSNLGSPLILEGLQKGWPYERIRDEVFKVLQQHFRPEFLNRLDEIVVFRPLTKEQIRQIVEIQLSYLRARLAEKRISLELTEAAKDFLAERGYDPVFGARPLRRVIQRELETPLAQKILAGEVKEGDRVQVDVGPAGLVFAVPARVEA
# T2 sequence (Q9RA63 520-854 R806A): as the sequence (Q9RA63 520-854 R621Q) above, with Q102R, R287A counted along it
# T1 sequence (Q9RA63 520-854 N709A): as the sequence (Q9RA63 520-854 R621Q) above, with Q102R, N190A counted along it
smiles,measurement,setting,value
Nc1ncnc2c1ncn2[C@@H]1O[C@H](COP(=O)(O)OP(=O)(O)O)[C@@H](O)[C@H]1O [ADP],Nucleotide binding / K d (μM),ClpB NBD2 [1],0.43 ± 8 × 10^−3 µM
same,Kd,ClpB NBD2 [2],3.8 ± 0.06 µM
same,Kd,ClpB NBD2 [3],1.5 ± 0.02 µM
same,"X-ray crystal structure, 2.4 Å",ClpB NBD2 [4],"Wild-type ClpB NBD2 in complex with ADP, PDB entry 4lj5"
CNc1ccccc1C(=O)O[C@H]1C[C@H](n2cnc3c(N)ncnc32)O[C@@H]1COP(=O)(O)OP(=O)(O)OP(=O)(O)O [MANT-dATP],Nucleotide binding / K d (μM),ClpB NBD2 [5],0.29 ± 2 × 10^−3 µM
Nc1ncnc2c1ncn2[C@@H]1O[C@H](COP(=O)(O)OP(=O)(O)CP(=O)(O)O)[C@@H](O)[C@H]1O [AMPPCP],"X-ray crystal structure, 1.9 Å",ClpB NBD2 [6],"Wild-type ClpB NBD2 in complex with AMPPCP, PDB entry 4lj6"
Nc1ncnc2c1ncn2[C@@H]1O[C@H](COP(=O)(O)OP(=O)(O)OP(=O)(O)O)[C@@H](O)[C@H]1O [ATP],Kd,ClpB NBD2 [7],74 ± 3 µM
same,Kd,ClpB NBD2 [8],84 ± 4 µM
same,Kd,ClpB NBD2 [9],55 ± 2 µM
CNc1ccccc1C(=O)O[C@H]1C[C@H](n2cnc3c(N)ncnc32)O[C@@H]1COP(=O)(O)OP(=O)(O)O [MANT-dADP],Nucleotide binding / K d (μM),ClpB NBD2 [10],0.0024 ± 3 × 10^−5 µM
same,Nucleotide binding / K d (μM),ClpB NBD2 [5],0.027 ± 1 × 10^−4 µM
same,Nucleotide binding / K d (μM),ClpB NBD2 [11],0.0068 ± 8 × 10^−5 µM
